Test results published in ChEMBL document CHEMBL1201862, “PubChem BioAssay data set” (2004).
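Growth conditions: 96-well plates. Treatment: test compound, 48 hours, 5 concentrations. Analysis: linear interpolation between bracketing concentrations; unreached endpoints set to highest concentration. Here, GI50 denotes the concentration required for 50% inhibition of growth.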 Activity calls are given as the source filed them. Cut-off read from the data, not from the text of the source: active = GI50 up to about 1.1 µM and inactive = higher.

Tests used:
Experiment in all cases: NCI anticancer screen, dose series, 48 h
T47D = system: T47D
XF498 = system: XF498
HOP-18 = system: HOP-18
DMS-114 = system: DMS-114
RXF 631 = system: RXF 631
DMS-273 = system: DMS-273
BT-549 = system: BT-549
SNB-78 = system: SNB-78
DLD-1 = system: DLD-1

SMILES | GI50 (T47D) | GI50 (XF498) | GI50 (HOP-18) | GI50 (DMS-114) | GI50 (RXF 631) | GI50 (DMS-273) | GI50 (BT-549) | GI50 (SNB-78) | GI50 (DLD-1)
COc1cc2nncc(SCc3ccc(Cl)c(Cl)c3)c2cc1OC | 34 µM (inactive) | 21.5 µM (inactive) | > 100 µM (inactive) | > 100 µM (inactive) | 72.1 µM (inactive) | > 100 µM (inactive) | > 100 µM (inactive) | 40.7 µM (inactive) | –
COC(=O)c1nc(N)nc(C(=O)OC)c1C(=O)c1ccccc1 | – | > 100 µM (inactive) | > 100 µM (inactive) | > 100 µM (inactive) | > 100 µM (inactive) | – | – | – | > 100 µM (inactive)
COc1cc([C@@H]2c3cc4c(cc3[C@@H](NC(=O)c3ccc(C(C)=O)cc3)C3COC(=O)[C@@H]32)OCO4)cc(OC)c1O (some centres undefined) | – | 0.347 µM (active) | > 100 µM (inactive) | 0.659 µM (active) | 1.24 µM (inactive) | 0.0556 µM (active) | – | 8.99 µM (inactive) | 1.4 µM (inactive)
CC1=CC(C)(C)N=C2SC(c3ccc(N)cc3)=NN12 | – | 50.9 µM (inactive) | 1.47 µM (inactive) | 32.7 µM (inactive) | 50.7 µM (inactive) | > 42.9 µM (inactive) | – | > 100 µM (inactive) | 40.1 µM (inactive)
CC1=C2O[B-](c3ccccc3)(c3ccccc3)[O+]=C2C=CN1 | – | 12.5 µM (inactive) | – | 38.7 µM (inactive) | 44.9 µM (inactive) | 45.9 µM (inactive) | – | 51.8 µM (inactive) | 33.4 µM (inactive)
O=C(Nc1c(Cl)cc([N+](=O)[O-])cc1Cl)C(=O)C(C1OC(=O)c2ccccc21)[N+](=O)[O-] (centres undefined) | – | > 100 µM (inactive) | – | 92.3 µM (inactive) | > 100 µM (inactive) | – | – | 41.2 µM (inactive) | > 100 µM (inactive)
NC12CC3CC(C1)CC(Cl)(C3)C2 | – | > 100 µM (inactive) | – | > 100 µM (inactive) | > 100 µM (inactive) | > 100 µM (inactive) | – | > 100 µM (inactive) | > 100 µM (inactive)
Cc1noc(/N=C2\C=C(Nc3onc(C)c3C)C(=O)c3ccccc32)c1C | – | > 100 µM (inactive) | 85.9 µM (inactive) | 15.3 µM (inactive) | > 100 µM (inactive) | > 100 µM (inactive) | – | > 100 µM (inactive) | 96.8 µM (inactive)
O=C(CCC(=O)C1CCC/C1=N/O)Nc1ccc(Cl)cc1 (centres undefined) | – | > 100 µM (inactive) | > 100 µM (inactive) | – | > 100 µM (inactive) | > 100 µM (inactive) | – | > 100 µM (inactive) | > 100 µM (inactive)
CC(C)=CCCC(C)[C@H]1CC(O)C2(C)C3=CCC4C(C)(C)[C@@H](O)CC[C@]4(C)C3=CC[C@]12C (some centres undefined) | – | 8.34 µM (inactive) | 13.7 µM (inactive) | 10 µM (inactive) | 4.34 µM (inactive) | 1.57 µM (inactive) | – | 7.13 µM (inactive) | 3.87 µM (inactive)
